Assay results: patent US9591978B2, “Methods and compositions for pre-screening patients for treatment with noribogaine” (DemeRX, Inc., priority 2014, dated 2017)
“Also recorded” adds a separate entry of the source.

Assays:
[1] = Pharmacokinetics of noribogaine in healthy volunteers (plasma, LCMSMS); settings: for AUC0-216 / AUC0-∞ / Cmax / Tmax / t1/2 / CL/F: healthy male volunteers, fasted, n = 6, mean (SD); for mean AUC/24 hr / mean AUC/24: fasting conditions
[2] = system: healthy, drug-free male volunteers; test: Pupillometry (pupillary miosis) in healthy volunteers; type: in vivo, human
Experimental: (§1) Pulse oximetry and capnography data were collected continuously using a GE Carescape B650 monitoring system from 2 hours prior to dosing and until six hours after dosing, and thereafter at 12, 24, 48 and 72 hours post-dosing. […] Pupillary miosis was assessed by pupillometry.
Summary statistics (means, standard deviations, and coefficients of variation) were determined for each dose group for safety laboratory test data, ECG and pharmacokinetic parameters, and pharmacodynamic variables. Categorical variables were analysed using counts and percentages. Dose-proportionality of AUC and Cmax was assessed using linear regression. The effect of dose on pharmacodynamic parameter values over time was assessed using two-factor analysis of variance (ANOVA). Pairwise comparisons (with Tukey-Kramer adjustment) between each dose group to the placebo were conducted at each time point using the least squares estimates obtained from the ANOVA, using SAS Proc Mixed (SAS ver 6.0).

[3] = system: healthy, drug-free male volunteers; test: Cold pressor test (analgesic effect) in healthy volunteers; type: in vivo, human
Experimental: Analgesic effect was assessed based on duration of hand immersion in ice water and on visual analog scale (VAS) pain scores upon hand removal from the water bath.
(§2) Safety and tolerability of noribogaine were tested in the group of volunteers from Example 1. […] Safety evaluations included clinical monitoring, recording of adverse events (AEs), safety laboratory tests, vital signs, ECG telemetry from −2 h to 6 h after dosing, and 12-lead electrocardiograms (ECGs) up to 216 hours post-dosing.

[4] = system: healthy, drug-free male volunteers; test: Safety and tolerability of noribogaine in healthy humans; type: in vivo, human
Experimental: as §1, §2

[5] = system: opioid-dependent participants; test: Time to resumption of opioid substitution treatment (OST); type: in vivo, human; settings: for therapeutic response: methadone addicted patients
[6] = system: opioid-dependent participants; test: Opiate withdrawal scales (COWS, SOWS, OOWS); type: in vivo, human; settings: first six hours following dosing
Experimental: Patients were evaluated based on the Clinical Opiate Withdrawal Scale (COWS), Subjective Opiate Withdrawal Scale (SOWS), and Objective Opiate Withdrawal Scale (OOWS) scoring systems over the period of time between administration of noribogaine (or placebo) until resumption of OST. These scales are outlined in Guidelines for the Psychosocially Assisted Pharmacological Treatment of Opioid Dependence, World Health Organization, Geneva (2009), Annex 10, which is incorporated herein by reference in its entirety. The scales measure the intensity of withdrawal symptoms, based on clinical, subjective, and objective indicia.

[7] = system: opioid-dependent participants; test: QT interval prolongation in opioid-dependent patients; type: in vivo, human
Experimental: Patients' QT intervals were evaluated at regular time points throughout the study.

[8] = Pharmacokinetics in opioid-dependent patients (Phase IB study); settings: 60-180 mg
[9] = system: opioid-dependent participants; test: Treatment emergent adverse events in opioid-dependent participants
[10] = 30 mg and 60 mg noribogaine dose groups
[11] = after adjusting for baseline, p>0.9
[12] = opioid-dependent participants, 60, 120, 180 mg
[13] = opioid-dependent patients, single 60 mg noribogaine dose, N = 6
[14] = opioid-dependent patients, single 120 mg noribogaine dose, N = 6
[15] = opioid-dependent patients, single 180 mg noribogaine dose, N = 6

CC[C@H]1C[C@@H]2C[C@H]3c4[nH]c5ccc(OC6OC(C(=O)O)C(O)C(O)C6O)cc5c4CCN(C2)[C@@H]13 (some centres unmarked) [Noribogaine glucuronide, noribogaine glucuronide]
mean half-life in plasma [1, 10]: 21 to 23 h | time by which detected in plasma of all subjects [1, 10]: ≤ 0.75 h | time of peak concentrations after noribogaine dosing [1, 10]: 3 to 4 h | proportion of Cmax and AUC relative to noribogaine ([1]; both dose groups (30 mg, 60 mg)): 3-4% | AUC0-216 ([1]; single oral 30 mg noribogaine): 25.7 (9.1) ng · hr/ml | AUC0-∞ ([1]; single oral 30 mg noribogaine): 25.8 (9.3) ng · hr/ml | Cmax ([1]; single oral 30 mg noribogaine): 1.8 (0.6) ng/ml | Tmax ([1]; single oral 30 mg noribogaine): 3.0 (0.6) hr | t1/2 ([1]; single oral 30 mg noribogaine): 20.6 (4.9) hr | AUC0-216 ([1]; single oral 60 mg noribogaine): 65.0 (21.5) ng · hr/ml | AUC0-∞ ([1]; single oral 60 mg noribogaine): 67.1 (21.9) ng · hr/ml | Cmax ([1]; single oral 60 mg noribogaine): 4.1 (1.2) ng/ml | Tmax ([1]; single oral 60 mg noribogaine): 3.8 (1.2) hr | t1/2 ([1]; single oral 60 mg noribogaine): 23.1 (3.0) hr

CC[C@H]1CC2C[C@H]3c4[nH]c5ccc(O)cc5c4CCN(C2)C13 [noribogaine]
pupil diameter, each dose group vs placebo by ANOVA [2, 11]: no statistically significant differences | pupillary constriction ([2]; healthy volunteers, 3-60 mg single oral dose): no evidence of pupillary constriction | VAS pain scores, each dose group vs placebo by ANOVA ([3]; after adjusting for baseline, p=0.17): no statistically significant differences | duration of hand immersion, each dose group vs placebo by ANOVA [3, 11]: no statistically significant differences | analgesic effect in the cold pressor test ([3]; healthy volunteers, 3-60 mg single oral dose, 1° C. water): no analgesic effect | adverse events reported ([4]; 3 mg dose group, by two subjects): five | adverse events reported ([4]; 10 mg dose group, single subject): one | adverse events reported ([4]; 30 mg dose group, single subject): one | intensity of adverse events ([4]; all adverse events of the study, all resolved prior to study completion): mild-moderate | Adverse events: Mild ([4]; healthy volunteers, 3 mg): Dizziness; also recorded: Epistaxis; also recorded: Headache; also recorded: Back pain | Adverse events: Moderate ([4]; healthy volunteers, 3 mg): Headache | Adverse events: Mild ([4]; healthy volunteers, 10 mg): Headache | Adverse events: Mild ([4]; healthy volunteers, 30 mg): Headache | oximetry, capnography, respiratory rate ([4]; healthy volunteers, 3-60 mg): no changes in oximetry or capnography, or changes in respiratory rate | vital signs and safety laboratory tests ([4]; healthy volunteers, 3-60 mg): no changes in vital signs or safety laboratory tests of note | QTcF values ([4]; healthy volunteers, at any time): ≤ 500 ms | increase in QTcF ([4]; one subject dosed with 10 mg, single increase at 24 hours post-dosing): > 60 ms | time to resumption of opioid substitution therapy compared with 60 mg ([5]; 120 mg): significantly longer | time to resumption of OST compared with untreated patients or 60 mg noribogaine ([5]; 180 mg): still longer | therapeutic response ([5]; single 60 mg dosing): generally does not provide a meaningful therapeutic response | therapeutic response ([5]; single 120 mg dosing): generally provides a meaningful therapeutic response | average time to resumption of opioids ([5]; single 120 mg dose): greater than 20 hours | withdrawal symptoms (COWS, OOWS, SOWS) ([6]; 120 mg): generally experienced fewer withdrawal symptoms than the other patients | withdrawal symptoms compared with placebo (COWS, OOWS, SOWS) ([6]; 60, 120, 180 mg): Patients administered placebo generally experienced more withdrawal symptoms than patients who were administered noribogaine | QT interval prolongation (ΔQTcl) versus dose and serum concentration ([7]; 60, 120, 180 mg, first 24 hours post administration): dose-dependent increase in QT interval prolongation | relation of QT interval prolongation to dose ([7]; doubling the dose gives about a doubling of the prolongation): linear pattern | QT interval in some patients ([7]; patients receiving 120 mg): greater than 500 ms | QT interval prolongation in some patients ([7]; patients receiving 120 mg): greater than 50 ms | average QT interval prolongation ([7]; patients receiving 120 mg): approximately 38 ms | maximum serum concentration (Cmax) versus dose [8]: increased in a dose-dependent manner | headaches ([9]; 60 mg noribogaine treatment group): frequent | headaches ([9]; 120 mg dose group): attenuated | headaches ([9]; 180 mg dose group): attenuated | adverse effects observed [9, 12]: Few adverse effects | hallucinatory effects [9, 12]: no hallucinatory effects | Treatment emergent adverse events: Catheter Site Infection [9, 13]: 0 | Treatment emergent adverse events: Catheter Site Pain [9, 13]: 0 | Treatment emergent adverse events: Catheter Site Related Reaction [9, 13]: 0 | Treatment emergent adverse events: Cellulitis [9, 13]: 0 | Treatment emergent adverse events: Diarrhoea [9, 13]: 0 | Treatment emergent adverse events: Dry Mouth [9, 13]: 0 | Treatment emergent adverse events: Ear and Labyrinth Disorders [9, 13]: 0 | Treatment emergent adverse events: Epistaxis [9, 13]: 0 | Treatment emergent adverse events: Euphoric Mood [9, 13]: 0 | Treatment emergent adverse events: General Disorders and Administration Site Conditions [9, 13]: 0 | Treatment emergent adverse events: Hyperaesthesia [9, 13]: 0 | Treatment emergent adverse events: Infections and Infestations [9, 13]: 0 | Treatment emergent adverse events: Limb Discomfort [9, 13]: 0 | Treatment emergent adverse events: Malaise [9, 13]: 0 | Treatment emergent adverse events: Nausea [9, 13]: 0 | Treatment emergent adverse events: Oropharyngeal Pain [9, 13]: 0 | Treatment emergent adverse events: Pseudoparalysis [9, 13]: 0 | Treatment emergent adverse events: Respiratory, Thoracic and Mediastinal Disorders [9, 13]: 0 | Treatment emergent adverse events: Rhinorrhoea [9, 13]: 0 | Treatment emergent adverse events: Skin Discomfort [9, 13]: 0 | Treatment emergent adverse events: Skin Irritation [9, 13]: 0 | Treatment emergent adverse events: Skin and Subcutaneous Tissue Disorders [9, 13]: 0 | Treatment emergent adverse events: Somnoience [9, 13]: 0 | Treatment emergent adverse events: Tinnitus [9, 13]: 0 | Treatment emergent adverse events: Tremor [9, 13]: 0 | Treatment emergent adverse events: Urinary Tract Infection [9, 13]: 0 | Treatment emergent adverse events: Vomiting [9, 13]: 0 | Treatment emergent adverse events: Back Pain [9, 14]: 0 | Treatment emergent adverse events: Catheter Site Infection [9, 14]: 0 | Treatment emergent adverse events: Catheter Site Related Reaction [9, 14]: 0 | Treatment emergent adverse events: Depressed Mood [9, 14]: 0 | Treatment emergent adverse events: Dry Eye [9, 14]: 0 | Treatment emergent adverse events: Dyspepsia [9, 14]: 0 | Treatment emergent adverse events: Euphoric Mood [9, 14]: 0 | Treatment emergent adverse events: Limb Discomfort [9, 14]: 0 | Treatment emergent adverse events: Malaise [9, 14]: 0 | Treatment emergent adverse events: Musculoskeletal and Connective Tissue Disorders [9, 14]: 0 | Treatment emergent adverse events: Psychiatric Disorders [9, 14]: 0 | Treatment emergent adverse events: Somnoience [9, 14]: 0 | Treatment emergent adverse events: Urinary Tract Infection [9, 14]: 0 | Treatment emergent adverse events: Catheter Site Infection [9, 15]: 0 | Treatment emergent adverse events: Catheter Site Pain [9, 15]: 0 | Treatment emergent adverse events: Depressed Mood [9, 15]: 0 | Treatment emergent adverse events: Diarrhoea [9, 15]: 0 | Treatment emergent adverse events: Dry Eye [9, 15]: 0 | Treatment emergent adverse events: Dyspepsia [9, 15]: 0 | Treatment emergent adverse events: Ear and Labyrinth Disorders [9, 15]: 0 | Treatment emergent adverse events: Epistaxis [9, 15]: 0 | Treatment emergent adverse events: Euphoric Mood [9, 15]: 0 | Treatment emergent adverse events: Hyperaesthesia [9, 15]: 0 | Treatment emergent adverse events: Malaise [9, 15]: 0 | Treatment emergent adverse events: Oropharyngeal Pain [9, 15]: 0 | Treatment emergent adverse events: Pseudoparalysis [9, 15]: 0 | Treatment emergent adverse events: Psychiatric Disorders [9, 15]: 0 | Treatment emergent adverse events: Respiratory, Thoracic and Mediastinal Disorders [9, 15]: 0 | Treatment emergent adverse events: Rhinorrhoea [9, 15]: 0 | Treatment emergent adverse events: Skin Discomfort [9, 15]: 0 | Treatment emergent adverse events: Skin Irritation [9, 15]: 0 | Treatment emergent adverse events: Skin and Subcutaneous Tissue Disorders [9, 15]: 0 | Treatment emergent adverse events: Somnoience [9, 15]: 0 | Treatment emergent adverse events: Tinnitus [9, 15]: 0 | Treatment emergent adverse events: Tremor [9, 15]: 0 | CL/F ([1]; single oral 3 mg noribogaine): 41.4 (7.0) L/h | CL/F ([1]; single oral 10 mg noribogaine): 42.3 (12.0) L/h | CL/F ([1]; single oral 30 mg noribogaine): 46.9 (16.4) L/h | CL/F ([1]; single oral 60 mg noribogaine): 34.0 (11.4) L/h | dose-proportionality of Cmax and AUC ([1]; healthy volunteers, 3-60 mg): increased linearly with dose | time of peak concentrations after oral dosing ([1]; healthy volunteers, across 3-60 mg dose groups): 2 to 3 h | mean half-life estimates ([1]; healthy volunteers, across dose groups): 28 to 50 h | mean AUC/24 hr ([1]; single dose of 3 mg noribogaine free base): 3.1 ng/mL | mean AUC/24 hr ([1]; single dose of 10 mg noribogaine free base): 10.6 ng/mL | mean AUC/24 ([1]; single dose of 30 mg noribogaine free base): 29.2 ng/mL | mean AUC/24 ([1]; single dose of 60 mg noribogaine free base): 61 ng/mL
